Assay results taken from patent EP4610262A1, “MACROCYCLIC COMPOUND AS CDK9 INHIBITOR AND USE THEREOF” (Artivila Biopharma, priority 2022, dated 2024).

How the values were obtained:
Experiment in all cases: CDK kinase selectivity (HTRF / ADP-Glo)
Assay type in all cases: biochemical
[1] = target: CDK13/CyclinK (Homo sapiens, UniProt Q14004); conditions: compound at 0.1 µM; read-out: Inhibition rate CDK13/CyclinK
Method: (§1) The selectivity of the test compounds against CDK kinases was detected. The compounds were tested at a concentration of 0.1 µM, and the inhibition rate of CDK kinases by the compounds was detected in duplicate wells, mainly using HTRF and ADP-Glo detection methods.
(§2) The HTRF detection method was conducted as follows: 2-fold ATP/substrate solution and 2-fold kinase/metal ion solution were prepared respectively with a kinase reaction buffer, and 25 nL of diluted compound solution was transferred to a 384-well detection plate with Echo 655. After centrifugation, the plate was added with 2.5 µL of 2-fold kinase/metal ion solution and incubated at 25°C for 10 minutes. After 10 minutes, 2.5 µL of 2-fold substrate/ATP solution was added to the 384-well detection plate and incubated at 25°C for 60 minutes. 2 kinase detection reagent (XL665 and antibody) was prepared with detection buffer, and 5 µL of kinase detection reagent was added to the 384-well detection plate and incubated at 25°C for 60 minutes. The fluorescence signals at 620 nm (Cryptate) and 665 nm (XL665) were read by the microplate reader, and the ratio and the inhibition rate of kinase activity by the compound were calculated.
(§3) The ADP-Glo detection method was conducted as follows. 2-fold ATP/substrate solution and 2-fold kinase/metal ion solution were prepared respectively with a kinase reaction buffer. 20 nL of diluted compound solution was transferred to a 384-well detection plate by Echo 655. After centrifuged, the 384-well detection plate was added with 2 µL of 2 × kinase/metal ion solution, and incubated at 25°C for 10 minutes. After 10 minutes, the 384-well detection plate was added with 2 µL of 2 × substrate/ATP solution and incubated at 25°C for 60 minutes. 4 µL of ADP-Glo reagent was added to each well and incubated at room temperature for 40 minutes. 10 µL of ADP detection reagent was added to each well and incubated at room temperature for 40 minutes. The chemiluminescent signal was detected with a microplate reader and the inhibition rate of kinase activity was calculated.

[2] = target: CDK1/CycE1 (Homo sapiens, UniProt P06493); conditions: compound at 0.1 µM; read-out: Inhibition rate CDK1/CycE1
Method: as §1, §2, §3

[3] = target: CDK5/p25NCK (Homo sapiens, UniProt Q00535); conditions: compound at 0.1 µM; read-out: Inhibition rate CDK5/p25NCK
Sequence of CDK5/p25NCK (Q00535 whole entry): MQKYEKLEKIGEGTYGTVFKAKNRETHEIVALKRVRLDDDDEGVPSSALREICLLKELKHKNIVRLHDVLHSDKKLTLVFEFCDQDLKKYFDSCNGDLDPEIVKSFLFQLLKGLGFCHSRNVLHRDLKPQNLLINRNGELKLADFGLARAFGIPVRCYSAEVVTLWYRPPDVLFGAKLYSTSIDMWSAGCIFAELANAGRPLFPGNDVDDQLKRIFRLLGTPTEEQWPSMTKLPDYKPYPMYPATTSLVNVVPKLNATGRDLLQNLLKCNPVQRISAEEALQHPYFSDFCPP
Sequence of CDK5/p25NCK (Q15078 99-307 partner limits assumed): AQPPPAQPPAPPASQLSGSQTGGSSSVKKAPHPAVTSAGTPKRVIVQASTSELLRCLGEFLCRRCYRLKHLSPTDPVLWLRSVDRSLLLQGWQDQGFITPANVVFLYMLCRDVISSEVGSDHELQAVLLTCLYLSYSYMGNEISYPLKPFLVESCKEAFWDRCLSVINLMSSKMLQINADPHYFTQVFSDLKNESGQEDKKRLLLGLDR
Method: as §1, §2, §3

[4] = target: CDK3/CycE1 (Homo sapiens, UniProt Q00526); conditions: compound at 0.1 µM; read-out: Inhibition rate CDK3/CycE1
Method: as §1, §2, §3

[5] = target: CDK2/CyCA2 (Homo sapiens, UniProt P24941); conditions: compound at 0.1 µM; read-out: Inhibition rate CDK2/CyCA2
Method: as §1, §2, §3

[6] = target: CDK6/CycD 1 (Homo sapiens, UniProt Q00534); conditions: compound at 0.1 µM; read-out: Inhibition rate CDK6/CycD 1
Sequence of CDK6/CycD 1 (Q00534 whole entry): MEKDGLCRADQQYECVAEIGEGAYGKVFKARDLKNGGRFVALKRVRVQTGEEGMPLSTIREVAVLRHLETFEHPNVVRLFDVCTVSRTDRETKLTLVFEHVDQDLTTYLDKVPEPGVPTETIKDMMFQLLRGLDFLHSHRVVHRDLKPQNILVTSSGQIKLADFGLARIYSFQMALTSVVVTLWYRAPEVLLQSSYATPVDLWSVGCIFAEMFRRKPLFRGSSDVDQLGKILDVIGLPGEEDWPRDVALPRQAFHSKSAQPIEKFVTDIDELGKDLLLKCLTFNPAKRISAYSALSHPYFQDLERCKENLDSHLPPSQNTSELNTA
Sequence of CDK6/CycD 1 (P24385 whole entry partner): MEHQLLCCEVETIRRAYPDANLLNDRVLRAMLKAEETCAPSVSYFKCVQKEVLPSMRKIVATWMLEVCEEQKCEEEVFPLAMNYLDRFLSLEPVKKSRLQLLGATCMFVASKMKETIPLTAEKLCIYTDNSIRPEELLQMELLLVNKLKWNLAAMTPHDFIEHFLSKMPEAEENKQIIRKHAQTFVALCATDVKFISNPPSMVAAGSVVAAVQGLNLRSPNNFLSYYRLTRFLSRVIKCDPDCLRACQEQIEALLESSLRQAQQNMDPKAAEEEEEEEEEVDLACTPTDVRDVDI
Method: as §1, §2, §3

[7] = target: CDK12/CyclinK (Homo sapiens, UniProt Q9NYV4); conditions: compound at 0.1 µM; read-out: Inhibition rate CDK12/CyclinK
Method: as §1, §2, §3

[8] = target: CDK9/CycT1 (Homo sapiens, UniProt P50750); conditions: compound at 0.1 µM; read-out: Inhibition rate CDK9/CycT1
Sequence of CDK9/CycT1 (P50750 whole entry, species assumed): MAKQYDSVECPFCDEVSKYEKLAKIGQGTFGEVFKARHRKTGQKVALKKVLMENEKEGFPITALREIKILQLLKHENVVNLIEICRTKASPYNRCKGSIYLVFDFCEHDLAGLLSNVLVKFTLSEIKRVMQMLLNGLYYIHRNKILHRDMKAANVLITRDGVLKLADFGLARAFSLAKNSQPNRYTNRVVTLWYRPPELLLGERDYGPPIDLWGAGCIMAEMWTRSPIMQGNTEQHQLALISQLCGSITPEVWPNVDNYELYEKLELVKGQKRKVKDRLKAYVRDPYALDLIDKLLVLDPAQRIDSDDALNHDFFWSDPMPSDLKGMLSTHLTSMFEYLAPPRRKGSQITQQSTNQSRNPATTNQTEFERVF
Sequence of CDK9/CycT1 (O60563 whole entry partner, species assumed): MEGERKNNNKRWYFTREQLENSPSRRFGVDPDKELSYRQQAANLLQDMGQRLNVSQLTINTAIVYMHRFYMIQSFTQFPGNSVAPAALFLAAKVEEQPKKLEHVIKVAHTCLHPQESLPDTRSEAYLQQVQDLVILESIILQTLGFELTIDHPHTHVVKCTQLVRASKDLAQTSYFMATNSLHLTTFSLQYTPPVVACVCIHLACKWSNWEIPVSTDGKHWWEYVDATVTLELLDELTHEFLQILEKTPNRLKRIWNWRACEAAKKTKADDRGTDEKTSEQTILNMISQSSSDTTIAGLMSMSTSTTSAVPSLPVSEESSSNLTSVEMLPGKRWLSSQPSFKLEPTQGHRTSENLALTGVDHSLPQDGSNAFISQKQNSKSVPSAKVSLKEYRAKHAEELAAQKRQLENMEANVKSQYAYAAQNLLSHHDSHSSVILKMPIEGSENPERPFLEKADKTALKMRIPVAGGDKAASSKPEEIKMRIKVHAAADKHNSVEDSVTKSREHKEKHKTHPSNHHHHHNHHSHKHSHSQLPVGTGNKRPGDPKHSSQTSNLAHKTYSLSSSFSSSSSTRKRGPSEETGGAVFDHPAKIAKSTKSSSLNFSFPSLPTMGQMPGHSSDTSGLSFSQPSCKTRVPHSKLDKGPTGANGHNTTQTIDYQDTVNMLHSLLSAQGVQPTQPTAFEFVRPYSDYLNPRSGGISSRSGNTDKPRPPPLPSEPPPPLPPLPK
Method: as §1, §2, §3

[9] = target: CDK1/CycB1 (Homo sapiens, UniProt P06493); conditions: compound at 0.1 µM; read-out: Inhibition rate CDK1/CycB1
Method: as §1, §2, §3

[10] = target: CDK5/p35NCK (Homo sapiens, UniProt Q00535); conditions: compound at 0.1 µM; read-out: Inhibition rate CDK5/p35NCK
Sequence of CDK5/p35NCK (Q00535 whole entry): as the sequence (Q00535 whole entry) above
Sequence of CDK5/p35NCK (Q15078 2-307 partner limits assumed): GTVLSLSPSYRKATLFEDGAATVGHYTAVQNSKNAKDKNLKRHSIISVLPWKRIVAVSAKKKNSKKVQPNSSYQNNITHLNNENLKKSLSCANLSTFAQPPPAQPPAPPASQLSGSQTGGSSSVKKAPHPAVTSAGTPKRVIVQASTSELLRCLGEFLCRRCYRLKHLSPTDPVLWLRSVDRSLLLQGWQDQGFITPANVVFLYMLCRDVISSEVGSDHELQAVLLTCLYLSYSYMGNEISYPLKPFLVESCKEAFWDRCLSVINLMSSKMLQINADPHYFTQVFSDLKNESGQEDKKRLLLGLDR
Method: as §1, §2, §3

[11] = target: CDK16/CyclinY (Homo sapiens, UniProt Q00536); conditions: compound at 0.1 µM; read-out: Inhibition rate CDK16/CyclinY
Sequence of CDK16/CyclinY (Q00536 whole entry): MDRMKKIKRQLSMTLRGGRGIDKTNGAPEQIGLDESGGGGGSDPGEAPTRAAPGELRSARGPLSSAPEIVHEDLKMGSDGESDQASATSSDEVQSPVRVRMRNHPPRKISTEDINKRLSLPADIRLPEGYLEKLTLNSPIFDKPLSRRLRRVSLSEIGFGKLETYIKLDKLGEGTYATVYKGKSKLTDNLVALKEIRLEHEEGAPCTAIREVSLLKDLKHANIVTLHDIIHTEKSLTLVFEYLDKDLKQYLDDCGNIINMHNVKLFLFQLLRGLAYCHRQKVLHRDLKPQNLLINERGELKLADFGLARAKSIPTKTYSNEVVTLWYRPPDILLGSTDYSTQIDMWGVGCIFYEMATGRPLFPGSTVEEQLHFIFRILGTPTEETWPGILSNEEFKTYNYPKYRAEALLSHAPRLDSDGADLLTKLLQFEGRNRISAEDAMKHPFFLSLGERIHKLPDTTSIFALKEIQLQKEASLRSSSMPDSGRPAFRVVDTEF
Sequence of CDK16/CyclinY (Q8ND76 whole entry partner): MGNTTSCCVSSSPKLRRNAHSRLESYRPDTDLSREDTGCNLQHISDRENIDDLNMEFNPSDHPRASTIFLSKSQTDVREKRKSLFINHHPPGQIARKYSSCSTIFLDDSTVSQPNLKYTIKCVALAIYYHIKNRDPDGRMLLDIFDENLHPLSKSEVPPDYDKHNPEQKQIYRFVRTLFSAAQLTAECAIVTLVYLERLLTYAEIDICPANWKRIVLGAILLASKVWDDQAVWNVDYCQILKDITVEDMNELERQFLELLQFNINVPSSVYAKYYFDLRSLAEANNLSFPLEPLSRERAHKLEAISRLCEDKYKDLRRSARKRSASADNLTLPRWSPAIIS
Method: as §1, §2, §3

[12] = target: CDK19/CycC (Homo sapiens, UniProt Q9BWU1); conditions: compound at 0.1 µM; read-out: Inhibition rate CDK19/CycC
Method: as §1, §2, §3

[13] = target: CDK2/CycE1 (Homo sapiens, UniProt P24941); conditions: compound at 0.1 µM; read-out: Inhibition rate CDK2/CycE1
Method: as §1, §2, §3

[14] = target: CDK18/CyclinY (Homo sapiens, UniProt Q07002); conditions: compound at 0.1 µM; read-out: Inhibition rate CDK18/CyclinY
Sequence of CDK18/CyclinY (Q07002 whole entry): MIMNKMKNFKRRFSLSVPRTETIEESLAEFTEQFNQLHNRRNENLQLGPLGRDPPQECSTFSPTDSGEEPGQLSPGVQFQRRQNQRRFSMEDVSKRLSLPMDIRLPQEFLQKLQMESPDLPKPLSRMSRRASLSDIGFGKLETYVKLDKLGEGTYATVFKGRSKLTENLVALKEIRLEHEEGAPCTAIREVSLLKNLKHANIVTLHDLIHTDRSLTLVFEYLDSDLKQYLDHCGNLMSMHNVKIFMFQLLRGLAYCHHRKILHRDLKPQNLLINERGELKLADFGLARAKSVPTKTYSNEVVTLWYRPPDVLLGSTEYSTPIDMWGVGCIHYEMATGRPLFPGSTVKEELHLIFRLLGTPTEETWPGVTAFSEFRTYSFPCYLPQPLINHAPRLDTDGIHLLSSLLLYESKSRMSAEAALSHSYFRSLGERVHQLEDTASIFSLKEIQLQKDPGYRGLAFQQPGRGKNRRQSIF
Sequence of CDK18/CyclinY (Q8ND76 whole entry partner): as the sequence (Q8ND76 whole entry partner) above
Method: as §1, §2, §3

[15] = target: CDK1/CycA2 (Homo sapiens, UniProt P06493); conditions: compound at 0.1 µM; read-out: Inhibition rate CDK1/CycA2
Method: as §1, §2, §3

[16] = target: CDK6/CycD3 (Homo sapiens, UniProt Q00534); conditions: compound at 0.1 µM; read-out: Inhibition rate CDK6/CycD3
Sequence of CDK6/CycD3 (Q00534 whole entry, species assumed): as the sequence (Q00534 whole entry) above
Sequence of CDK6/CycD3 (P30281 whole entry partner, species assumed): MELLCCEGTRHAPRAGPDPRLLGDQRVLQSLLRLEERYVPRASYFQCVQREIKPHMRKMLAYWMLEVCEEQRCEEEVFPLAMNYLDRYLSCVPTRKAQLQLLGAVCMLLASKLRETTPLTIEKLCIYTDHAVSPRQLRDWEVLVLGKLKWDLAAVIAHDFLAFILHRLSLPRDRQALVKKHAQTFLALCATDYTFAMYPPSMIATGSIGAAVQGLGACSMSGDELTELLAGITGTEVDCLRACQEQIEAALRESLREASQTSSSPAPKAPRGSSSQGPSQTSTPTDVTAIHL
Method: as §1, §2, §3

[17] = target: CDK4/cycD1 (Homo sapiens, UniProt P11802); conditions: compound at 0.1 µM; read-out: Inhibition rate CDK4/cycD1
Sequence of CDK4/cycD1 (P11802 whole entry): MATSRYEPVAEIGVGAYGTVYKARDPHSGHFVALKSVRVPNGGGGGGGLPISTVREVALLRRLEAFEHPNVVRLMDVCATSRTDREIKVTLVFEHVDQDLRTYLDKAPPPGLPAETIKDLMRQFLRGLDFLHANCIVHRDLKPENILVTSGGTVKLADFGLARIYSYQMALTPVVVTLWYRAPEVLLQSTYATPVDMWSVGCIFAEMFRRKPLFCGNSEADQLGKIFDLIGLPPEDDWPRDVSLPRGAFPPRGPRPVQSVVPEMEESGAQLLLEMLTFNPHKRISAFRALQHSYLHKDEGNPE
Sequence of CDK4/cycD1 (P24385 whole entry partner): as the sequence (P24385 whole entry partner) above
Method: as §1, §2, §3

[18] = target: CDK7/CycH/MAT1 (Homo sapiens, UniProt P50613); conditions: compound at 0.1 µM; read-out: Inhibition rate CDK7/CycH/MAT1
Method: as §1, §2, §3

[19] = target: CDK4/CycD3 (Homo sapiens, UniProt P11802); conditions: compound at 0.1 µM; read-out: Inhibition rate CDK4/CycD3
Method: as §1, §2, §3

Clc1cnc2nc1NCCCCCNCc1cccc(c1)N2 [Compound 8, 1^5-chloro-2,5,11-triaza-1(2,4)-pyrimidina-3(1,3)-benzenacyclodecaphane]
inhibition at 0.1 µM [1]: 50 to 75% | inhibition at 0.1 µM [2]: < 50% | inhibition at 0.1 µM [3]: 50 to 75% | inhibition at 0.1 µM [4]: 50 to 75% | inhibition at 0.1 µM [5]: < 50% | inhibition at 0.1 µM [6]: < 50% | inhibition at 0.1 µM [7]: 50 to 75% | inhibition at 0.1 µM [8]: > 95% | inhibition at 0.1 µM [9]: < 50% | inhibition at 0.1 µM [10]: < 50% | inhibition at 0.1 µM [11]: 50 to 75% | inhibition at 0.1 µM [12]: < 50% | inhibition at 0.1 µM [13]: 50 to 75% | inhibition at 0.1 µM [14]: < 50% | inhibition at 0.1 µM [15]: < 50% | inhibition at 0.1 µM [16]: < 50% | inhibition at 0.1 µM [17]: < 50% | inhibition at 0.1 µM [18]: 50 to 75% | inhibition at 0.1 µM [19]: 50 to 75%
